Here are results for 29 compounds from patent US20240317686A1, “RORyT MODULATOR, AND PREPARATION METHOD THEREFOR AND APPLICATION THEREOF” (SHANGHAI PHARMACEUTICALS HOLDING CO., LTD., priority 2020, published 2024).

What is called IC50 is the midpoint of a concentration-inhibition curve. Read a low IC50 as greater potency in that assay.

For this experiment, the target named is T1, RORγt (Homo sapiens, UniProt P51449).
T1 construct: Prepare 4×RORgt-LBD in 1× buffer
T1 sequence (P51449 269-508 limits assumed): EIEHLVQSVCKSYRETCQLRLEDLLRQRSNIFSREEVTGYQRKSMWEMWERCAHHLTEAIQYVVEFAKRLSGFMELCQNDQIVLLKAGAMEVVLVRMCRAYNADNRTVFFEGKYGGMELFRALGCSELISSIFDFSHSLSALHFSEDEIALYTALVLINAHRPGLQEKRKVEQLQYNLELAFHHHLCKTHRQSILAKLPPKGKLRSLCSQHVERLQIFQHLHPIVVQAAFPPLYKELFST
The experiment can be described thus: Fluorescence resonance energy transfer (FRET) assay of inhibitory activity on RORγt. In kind it is biochemical. The note with it: RORgt-LBD GST with SRC peptide. As to the method: Fluorescence resonance energy transfer (FRET) experiment was performed to assay the inhibitory activity of the compound of the present invention on RORγt.
1) Preparation of DMSO stock solutions of the compounds: All compounds were dissolved in DMSO to prepare 10 mM stock solutions.
2) Compound storage: After the compound was dissolved in DMSO, the solution can be stored in a desiccator at room temperature for three months. For long-term storage, the solution should be put in a −20° C. refrigerator.
3) Preparation of working solution: • a) Positive control compound AZD0284: Starting from 500 µM, the solution was diluted serially by 3-folds with DMSO to obtain a 10-concentration gradient, each concentration with 3 replicate wells. 2 wells were pipetted. The gradiently diluted compound was diluted in a reaction buffer to obtain a 4× working solution (starting from 40 μM, diluted gradiently by 3-folds) of the positive control compound. • b) Compounds to be tested: Starting from 500 μM, the solution was diluted serially by 3-folds with DMSO to obtain a 10-concentration gradient, each concentration with 3 replicate wells. 2 wells were pipetted. The gradiently diluted compound was diluted in a reaction buffer to obtain a 4× working solution ([…], diluted gradiently by 3-folds) of the compounds to be tested. • c) Prepare a 4× negative control (8% DMSO). • d) Centrifuge the plate at 1000 rpm for 1 min.
1) Prepare 4× serially diluted compounds in 1× buffer.
2) Add 5 μl of the 4× serially diluted compound (prepared in step 1) to a 384 assay plate (784075, Greiner).
3) Prepare 4×RORgt-LBD in 1× buffer.
4) Add 5 μl of the 4×RORgt-LBD (prepared in step 3) to the 384 assay plate (prepared in step 2).
5) Incubate the assay plate for 15 min at room temperature, protected from light.
6) Prepare a 2× mixture of SRC, anti-GST Eu and streptavidin-d2 in 1× […].
7) Add 10 μl of the 2× mixture (prepared in step 6) to the 384 assay plate (prepared in step 4).
8) Centrifuge the 384 assay plates at 1000 g for 1 min.
9) Incubate for 3 h at room temperature, protected from light.
10) Read the plate at wavelengths of 665 nm and 615 nm on an Envision 2104 plate reader.
Relative ratio (RR): Calculate the relative ratio (response value at 665 nm/response value at 615 nm-response value in blank background) of each well.
Inhibition rate %=[1−(fluorescence detection value of the compound−fluorescence detection average of the positive compound)/(fluorescence detection average of the negative control−fluorescence detection average of the positive compound)]×100
Calculate the IC50 and dose-response curve of the compound: The IC50 and dose-response curve of the compound were obtained via Graphpad 8.0 by calculating the inhibition rate of the compound and the log value of the compound concentration.
`CCS(=O)(=O)c1ccc(CC(=O)Nc2ccc(C(=O)C(C)(C)c3cccc(Cl)c3)nc2)cc1` [Compound I-1, N-[6-[2-(3-chlorophenyl)-2-methyl-propionyl]-3-pyridyl]-2-(4-ethylsulfonylphenyl)acetamide] displayed an IC50 of 1 to 10 nM.
As to `CCS(=O)(=O)c1ccc(CC(=O)Nc2ccc(C(=O)C(C)(C)c3ccc(Cl)cc3)cn2)cc1` [Compound I-2, N-[5-[2-(4-chlorophenyl)-2-methyl-propionyl]-2-pyridyl]-2-(4-ethylsulfonylphenyl)acetamide], the IC50 lay in the range of 10 to 50 nM.
`CCS(=O)(=O)c1ccc(CC(=O)Nc2ccc(C(=O)C(C)(C)c3ccc(Cl)cc3)nc2)cc1` [Compound I-3, N-[6-[2-(4-chlorophenyl)-2-methylpropionyl]-3-pyridyl]-2-(4-ethylsulfonylphenyl)acetamide]: the concentration for half-maximal inhibition (IC50) lay within 10 to 50 nM.
As for `CCS(=O)(=O)c1ccc(CC(=O)Nc2ccc(C(=O)C(C)(C)c3ccc(F)cc3)nc2)cc1` [Compound I-4], the figure is 1 to 10 nM; as for `CCS(=O)(=O)c1ccc(CC(=O)Nc2ccc(C(=O)C(C)(C)c3ccc(Br)cc3)nc2)cc1` [Compound I-5], 1 to 10 nM; as for `CCS(=O)(=O)c1ccc(CC(=O)Nc2ccc(C(=O)C(C)(C)c3ccc(F)c(Cl)c3)nc2)cc1` [Compound I-6, N-(6-(2-(3-chloro-4-fluorophenyl)-2-methylpropionyl)pyridin-3-yl)-2-(4-(ethylsulfonyl)phenyl) acetamide], 1 to 10 nM.
On to `CCS(=O)(=O)c1ccc(CC(=O)Nc2ccc(C(=O)C(C)(C)c3cccnc3)nc2)cc1` [Compound I-7, 2-(4-(ethylsulfonyl)phenyl)-N-(6-(2-methyl-2-(pyridin-3-yl)propanoyl)pyridin-3-yl)acetamide], for which the IC50 is 10 to 50 nM.
Compound `CCS(=O)(=O)c1ccc(CC(=O)Nc2ccc(C(=O)C3(c4ccc(Cl)cc4)CCC3)nc2)cc1` [Compound I-8, N-(6-(1-(4-chlorophenyl)cyclobutane-1-carbonyl)pyridin-3-yl)-2-(4-(ethylsulfonyl)phenyl)acetamide] had a half-inhibitory concentration (IC50) of 1 to 10 nM.
For `CCS(=O)(=O)c1ccc(CC(=O)Nc2ccc(C(=O)C(C)(C)c3cccc(C#N)c3)nc2)cc1` [Compound I-9, N-[6-[2-(3-cyanophenyl)-2-methylpropionyl]-3-pyridyl]-2-(4-ethylsulfonylphenyl)acetamide], the IC50 lay in the range of 1 to 10 nM.
Turning to `CCS(=O)(=O)c1ccc(CC(=O)Nc2ccc(C(=O)C(C)(C)c3cccc(Br)c3)nc2)cc1` [Compound I-10, N-[6-[2-(3-bromophenyl)-2-methylpropionyl]-3-pyridyl]-2-(4-ethylsulfonylphenyl)acetamide], the IC50 was 1 to 10 nM.
Turning to `CCS(=O)(=O)c1ccc(CC(=O)Nc2ccc(C(=O)C3(c4ccc(Cl)cc4)CC3)nc2)cc1` [Compound I-11, N-(6-(1-(4-chlorophenyl)cyclopropane-1-carbonyl)pyridin-3-yl)-2-(4-(ethylsulfonyl)phenyl)acetamide], the IC50 lay in the range of 1 to 10 nM.
On to `CCS(=O)(=O)c1ccc(CC(=O)Nc2ccc(C(=O)C(C)(C)c3ccc(F)cc3F)nc2)cc1` [Compound I-12, N-(6-(2-(2,4-difluorophenyl)-2-methylpropionyl)pyridin-3-yl)-2-(4-(ethylsulfonyl)phenyl)acetamide], for which the IC50 was 1 to 10 nM.
For the compound `CCS(=O)(=O)c1ccc(CC(=O)Nc2ccc(C(=O)C(C)(C)c3ccc(C(F)(F)F)cc3)nc2)cc1` [Compound I-13], the IC50 was in the range of 1 to 10 nM.
`CCS(=O)(=O)c1ccc(CC(=O)Nc2ccc(C(=O)C(C)c3ccc(Cl)cc3)nc2)cc1` (centres unmarked) [Compound I-14, N-(6-(2-(4-chlorophenyl)propionyl)pyridin-3-yl)-2-(4-(ethylsulfonyl)phenyl)acetamide] returned a 50% inhibitory concentration (IC50) of 1 to 10 nM.
With `CCS(=O)(=O)c1ccc(CC(=O)Nc2ccc(C(=O)C(C)(C)c3ccc(F)c(Br)c3)nc2)cc1` [Compound I-15], the IC50 was in the range of 1 to 10 nM.
In the case of `CCS(=O)(=O)c1ccc(CC(=O)Nc2ccc(C(=O)C(C)(C)c3ccncc3)nc2)cc1` [Compound I-19] it was 1 to 10 nM; in that of `CCS(=O)(=O)c1ccc(CC(=O)Nc2ccc(C(=O)C(C)(C)c3ccccn3)nc2)cc1` [Compound I-20, 2-(4-(ethylsulfonyl)phenyl)-N-(6-(2-methyl-2-(pyridin-2-yl)propanoyl)pyridin-3-yl)acetamide], 10 to 50 nM; in that of `CCS(=O)(=O)c1ccc(CC(=O)Nc2ccc(C(=O)C(C)(C)c3cnn(C)c3)nc2)cc1` [Compound I-23, 2-(4-(ethylsulfonyl)phenyl)-N-(6-(2-methyl-2-(1-methyl-1H-pyrazol-4-yl)propionyl)pyridin-3-yl)acetamide], 10 to 50 nM.
On to `CCS(=O)(=O)c1ccc(CC(=O)Nc2ccc(C(=O)C(C)(C)c3ccc(Cl)cc3)nc2)nc1` [Compound I-24, N-(6-(2-(4-chlorophenyl)-2-methylpropionyl)pyridin-3-yl)-2-(5-(ethylsulfonyl)pyridin-2-yl)acetamide], for which the IC50 lay in the range of 10 to 50 nM.
The compound `CCS(=O)(=O)c1ccc(CC(=O)Nc2ccc(C(=O)C(C)(C)c3ccc(C(F)(F)F)cn3)nc2)cc1` [Compound I-25, 2-(4-(ethylsulfonyl)phenyl)-N-(6-(2-methyl-2-(5-(trifluoromethyl)pyridin-2-yl)propionyl)pyridin-3-yl)acetamide] gave an IC50 of 1 to 10 nM.
On to `CCS(=O)(=O)c1ccc(CC(=O)Nc2ccc(C(=O)C(C)(C)c3ccc(F)c(Cl)c3)nc2)nc1` [Compound I-26, N-(6-(2-(3-chloro-4-fluorophenyl)-2-methylpropionyl)pyridin-3-yl)-2-(5-(ethylsulfonyl)pyridin-2-yl)acetamide], for which the half-inhibitory concentration (IC50) fell in the range of 1 to 10 nM.
`CCS(=O)(=O)c1ccc(CC(=O)Nc2ccc(C(=O)C(C)(C)c3cc(Cl)cc(C#N)c3)nc2)cc1` [Compound I-27, N-(6-(2-(3-chloro-5-cyanophenyl)-2-methylpropionyl)pyridin-3-yl)-2-(4-(ethylsulfonyl)phenyl) acetamide] had an IC50 of 1 to 10 nM.
As for `CCS(=O)(=O)c1ccc(CC(=O)Nc2ccc(C(=O)C(C)(C)c3ccc(F)cn3)nc2)cc1` [Compound I-28], the figure is 10 to 50 nM.
Consider `CCS(=O)(=O)c1ccc(CC(=O)Nc2ccc(C(=O)C(C)(C)c3ccnc(C)c3)nc2)cc1` [Compound I-29], for which the IC50 lay within 1 to 10 nM.
Turning to `CCS(=O)(=O)c1ccc(CC(=O)Nc2ccc(C(=O)C(C)(C)c3ccc(C)cn3)nc2)cc1` [Compound I-30], the IC50 was in the range of 1 to 10 nM.
For the compound `CCS(=O)(=O)c1ccc(CC(=O)Nc2ccc(C(=O)C(C)(C)c3ccc(Cl)cn3)nc2)cc1` [Compound I-31], the IC50 was in the range of 1 to 10 nM.
Compound `CCS(=O)(=O)c1ccc(CC(=O)Nc2ccc(C(=O)C(C)(C)c3cncc(Cl)c3)nc2)cc1` [Compound I-32, N-(6-(2-(5-chloropyridin-3-yl)-2-methylpropionyl)pyridin-3-yl)-2-(4-(ethylsulfonyl)phenyl)acetamide] came in with an IC50 of 10 to 50 nM.
`CCS(=O)(=O)c1ccc(CC(=O)Nc2ccc(C(=O)C(C)(C)c3cnn(CC(F)(F)F)c3)nc2)cc1` [Compound I-33, 2-(4-(ethylsulfonyl)phenyl)-N-(6-(2-methyl-2-(1-(2,2,2-trifluoroethyl)-1H-pyrazol-4-yl)propionyl)pyridin-3-yl)acetamide] had an IC50 of 10 to 50 nM.
`CCS(=O)(=O)c1ccc(CC(=O)Nc2ccc(C(=O)C(C)(C)c3cnn(CC(F)F)c3)nc2)cc1` [Compound I-34]: the IC50 fell in the range of 100 to 1000 nM.
